The values that follow come from patent publication US6815205B2, “Auxinic analogues of indole-3-acetic acid” (Invitrogen Corporation, priority 1995, dated 2004).

The test system of one test is Arabidopsis thaliana. The protocol:
Seeds of Arabidopsis thaliana ecotypes Columbia and Landersberg ereta are provided by Dr. Keith Davis (The Ohio State University, Columbus). Tissues of hypocotyl are removed from 10-day-old seedlings, transferred to MS complete medium containing (1) different concentrations of IAA or IAA analogue with different concentrations of N^6.(Δ2Isopentenyl) adenine (2iP) and (2) different concentrations of IAA analogue with different concentrations of 2iP, BAP, or kinetin. The explants are incubated at 23° C. using an 18 h light/6 h dark cycle until the formation of green calli and shoots.

The conditions of test [1]: disclosed in copending U.S. application Ser. No. 08/430,209; cited from earlier work.
A further test has as its system transformed potato. As to the kind of experiment: Regeneration of Agrobacterium-mediated transformed potato tissue under kanamycin selection. Conditions: 100 mg/l kanamycin; for regeneration of kanamycin resistant calli in transformed potato: in the presence of BAP; for Potato Callus (regeneration of transformed tissue): BAP 0.5 mg/l, 2 mg/l IAA derivative, Agrobacterium pBI121. In kind it is cell-based. Also on record: key to Potato Callus (regeneration of transformed tissue): +(−) means preliminary observation. The protocol: (§1) These IAA analogues were further evaluated for their abilities to effect the regeneration of plant tissues comprising foreign DNA. Tobacco and potato tissues were subjected to Agrobacterium-mediated transformation techniques, including cocultivation with Agrobacterium containing pBI121 and selecting with MS complete medium containing 0.5 mg/l BAP, 2 mg/l IAA derivative and 100 mg/l kanomycin.
Plant transformation in potato stems is carried out as described above in section (a) for tobacco.
(§2) Agrobacterium-mediated plant transformation was performed as described by Lin et al. (1994) Focus 16:72-77. For example:
In another example, potato leaf discs were transformed with the Agrobacterium-mediation technique as described above for tobacco. The potato explants were then subjected to incubation with IAA analogues in the absence and presence of cytokinin to screen for auxinic activities.

In another test the test system is transformed tobacco. As to the kind of experiment: Regeneration of Agrobacterium-mediated transformed tobacco tissue under kanamycin selection. In kind it is cell-based. Conditions: in the presence of BAP; 100 mg/l kanamycin. As for the experimental part:
as §1, §2
In tobacco, the leaf discs were incubated with 10^9 cells/ml of Agrobacterium tumefaciens LBA4404 cells containing pBI121 in MS complete medium with 0.5 mg/l MES for 10 minutes, transferred to solid MS complete medium, and incubated for two days at 25° C., using an 18 hour light/6 hour dark cycle for cocultivation. After cocultivation, the explants were transferred to the MS medium containing a different ratio of BAP/IAA or BAP/IAA analogue, 100 mg/l kanamycin and 500 mg/l carbenicillin and incubated at 25° C. using an 18 hour light/6 hour dark cycle for shoot formation.

In test [2] the test system is tobacco leaf discs. As to the kind of experiment: Regeneration of roots or calli from tobacco leaf explants, MS complete medium with auxin only. In kind it is cell-based, Nicotiana tobaccum Xanthi. Conditions: for Tobacco Callus (regeneration): Auxins 2 mg/l, no cytokinin, MS complete medium. Further details: key to Tobacco Callus (regeneration): +(−) means preliminary observation. The protocol: (§3) In particular embodiments of the invention, various IAA analogues were screened for auxinic activity by incubating different plant tissues, e.g., tobacco and tomato leaf discs and potato stems in (a) MS complete medium (obtained from Life Technologies, Inc., Gaithersburg, Md.) containing different concentrations of auxin only and (2) the MS complete auxin medium containing different ratios of cytokinin/auxin.
(§4) In another embodiment of the invention, IAA analogues were screened for auxinic activity. […] Table 1 documents the ability of the different IAA analogues to stimulate the regeneration of roots or calli from tobacco, tomato and potato. In general, IAA analogues having a bromine substitution at the 2
Seeds of Nicotiana tobaccum Xanthi are provided by Dr. James Saunders (USDA, Beltsville, Md.). Young tobacco leaves are removed and cut into small pieces.
The regeneration of plant tissues using tissue culture depends on plant hormones such as auxin and cytokinin. It is known that the presence of an auxin in plant tissue cultured on Murashige and Skoog (MS) medium (Murashige, T. and F. Skoog (1962) Physiol. Plant 15:473-497) stimulates the formation of root structure whereas the formation of callus is observed when not only the auxin but also a cytokinin complement the MS nutrient medium. Therefore, evaluation of a test compound as a potential new auxin is performed by incubating tobacco leaf discs in (a) the MS complete medium containing different concentrations of auxin only and (b) the MS complete medium containing different ratios of cytokinin to auxin concentrations (cytokinin/auxin).
(§5) Young tobacco leaves, potato stems, tomato leaves and cassava leaves and stems from one-month-old plants were removed and cut into small pieces. The explants were incubated on (1) the MS complete medium containing different concentrations of auxin related compounds only (2) the MS complete medium containing different concentrations of auxin-related compounds and 0.5 mg/l benzylaminopurine (BAP) using an 18 hour light/6 hour dark cycle until the formation of green calli, shoots or roots.

Test [3] concerns tobacco leaf discs. Nature of the test: Regeneration of shoots or calli from tobacco leaf explants, auxin together with cytokinin (BAP). In kind it is cell-based, Nicotiana tobaccum Xanthi. Further details: key to Tobacco Callus (regeneration): +(−) means preliminary observation. As for the experimental part: In particular embodiments of the invention, various IAA analogues were screened for auxinic activity by incubating different plant tissues, e.g., tobacco and tomato leaf discs and potato stems in (a) MS complete medium (obtained from Life Technologies, Inc., Gaithersburg, Md.) containing different concentrations of auxin only and (2) the MS complete auxin medium containing different ratios of cytokinin/auxin. These IAA derivatives were further evaluated for auxinic activity in the presence of a cytokinin. […] Incubation of plant tissues Seeds of Nicotiana tobaccum Xanthi are provided by Dr. James Saunders (USDA, Beltsville, Md.). Young tobacco leaves are removed and cut into small pieces. […] The regeneration of plant tissues using tissue culture depends on plant hormones such as auxin and cytokinin. It is known that the presence of an auxin in plant tissue cultured on Murashige and Skoog (MS) medium (Murashige, T. and F. Skoog (1962) Physiol. Plant 15:473-497) stimulates the formation of root structure whereas the formation of callus is observed when not only the auxin but also a cytokinin complement the MS nutrient medium. […]

Test [4] relates to potato stems. As to the kind of experiment: Regeneration of roots or calli from potato stem explants, MS complete medium with auxin only. Conditions: for root formation in potato stems: absence of BAP. In kind it is cell-based. Also on record: key to Potato Roots (regeneration): +(−) means preliminary observation. The protocol: as §3, §4
Potato seeds of variety “Kent V. F.” are provided by Dr. James Saunders (USDA, Beltsville, Md.). Young potato stems are removed and cut into small pieces. Explants are incubated in MS complete medium with auxin in the presence or absence of cytokinin as described in section (a) above for tobacco.
as §5

For test [5], the system named is potato stems. Nature of the test: Regeneration of shoots or calli from potato stem explants, auxin together with cytokinin (BAP). In kind it is cell-based. Further details: key to Potato Callus (regeneration): +(−) means preliminary observation. As for the experimental part:
In particular embodiments of the invention, various IAA analogues were screened for auxinic activity by incubating different plant tissues, e.g., tobacco and tomato leaf discs and potato stems in (a) MS complete medium (obtained from Life Technologies, Inc., Gaithersburg, Md.) containing different concentrations of auxin only and (2) the MS complete auxin medium containing different ratios of cytokinin/auxin. These IAA derivatives were further evaluated for auxinic activity in the presence of a cytokinin. […] Incubation of plant tissues Potato seeds of variety “Kent V. F.” are provided by Dr. James Saunders (USDA, Beltsville, Md.). Young potato stems are removed and cut into small pieces. Explants are incubated in MS complete medium with auxin in the presence or absence of cytokinin as described in section (a) above for tobacco. Young tobacco leaves, potato stems, tomato leaves and cassava leaves and stems from one-month-old plants were removed and cut into small pieces. The explants were incubated on (1) the MS complete medium containing different concentrations of auxin related compounds only (2) the MS complete medium containing different concentrations of auxin-related compounds and 0.5 mg/l benzylaminopurine (BAP) using an 18 hour light/6 hour dark cycle until the formation of green calli, shoots or roots.

In test [6] the test system is tomato leaf discs. As to the kind of experiment: Regeneration of shoots or calli from tomato leaf explants, auxin together with cytokinin (BAP). Conditions: 0.5, 2.0 or 8.0 with 0.5 mg/l BAP. In kind it is cell-based. The protocol:
In particular embodiments of the invention, various IAA analogues were screened for auxinic activity by incubating different plant tissues, e.g., tobacco and tomato leaf discs and potato stems in (a) MS complete medium (obtained from Life Technologies, Inc., Gaithersburg, Md.) containing different concentrations of auxin only and (2) the MS complete auxin medium containing different ratios of cytokinin/auxin. These IAA derivatives were further evaluated for auxinic activity in the presence of a cytokinin. […] Incubation of plant tissues Tomato seeds of variety “Moneymaker” are provided by Dr. James Saunders (USDA, Beltsville, Md.). Young tomato leaves are removed and cut into small pieces. Explants are incubated in MS complete medium with auxin in the presence or absence of cytokinin as described in section (a) above for tobacco. Young tobacco leaves, potato stems, tomato leaves and cassava leaves and stems from one-month-old plants were removed and cut into small pieces. The explants were incubated on (1) the MS complete medium containing different concentrations of auxin related compounds only (2) the MS complete medium containing different concentrations of auxin-related compounds and 0.5 mg/l benzylaminopurine (BAP) using an 18 hour light/6 hour dark cycle until the formation of green calli, shoots or roots.

For test [7], the system named is tomato leaf discs. Nature of the test: Regeneration of roots or calli from tomato leaf explants, MS complete medium with auxin only. Conditions: 0.5, 2.0 and 8.0 mg/l, absence of BAP. In kind it is cell-based. As for the experimental part:
as §3, §4
Tomato seeds of variety “Moneymaker” are provided by Dr. James Saunders (USDA, Beltsville, Md.). Young tomato leaves are removed and cut into small pieces. Explants are incubated in MS complete medium with auxin in the presence or absence of cytokinin as described in section (a) above for tobacco.
Young tobacco leaves, potato stems, tomato leaves and cassava leaves and stems from one-month-old plants were removed and cut into small pieces. […]

For the compound 5-bromo-IAA, the “effectiveness in stimulating the regeneration of green calli, relative to IAA” value in the test on Arabidopsis thaliana is “between two and four times more effective than IAA”. Besides, in test [1], the “callus and shoot formation in combination with cytokinin” value was “both callus and shoot formation are observed”.
As to `O=C(O)Cc1c[nH]c2ccc(Cl)cc12` [5-ClIAA, 5-chloroindole-3-acetic acid], the “regeneration of kanamycin resistant calli in transformed potato” value (from here on “regeneration … in transformed potato”) in the test with transformed potato is listed as “stimulated”. Also, in the test with transformed tobacco, the “regeneration of kanamycin resistant calli and shoots in transformed tobacco” value (shortened to “regeneration … in transformed tobacco”) is “stimulated”.
On to `CCc1ccc2[nH]cc(CC(=O)O)c2c1` [5-EtIAA, 5-ethylindole-3-acetic acid], for which the “Tobacco Callus (regeneration)” value in the test with tobacco leaf discs [2] was “+(−)”. Further, the “regeneration … in transformed potato” value in the test on transformed potato is “stimulated”. Besides, the “regeneration … in transformed tobacco” value with transformed tobacco is on record as “stimulated”.
Regarding `O=C(O)Cc1c[nH]c2ccc(I)cc12` [5-IIAA, 5-iodoindole-3-acetic acid], the “Tobacco Callus (regeneration)” value in the test on tobacco leaf discs [2] and in the test with tobacco leaf discs [3] (BAP 0.5 mg/l + Auxins 2 mg/l) was “+(−)” throughout. Moreover, in the test with potato stems [4] (Auxins 2 mg/l, no cytokinin, MS complete medium), the “Potato Roots (regeneration)” value was “+(−)”. Also, in the test on potato stems [5] (BAP 0.5 mg/l + Auxins 2 mg/l), the “Potato Callus (regeneration)” value was “+(−)”.
As to `COc1ccc2[nH]cc(CC(=O)O)c2c1` [5-MeoIAA, 5-methoxyindole-3-acetic acid], the “regeneration … in transformed potato” value in the test on transformed potato was “stimulated”. The “regeneration … in transformed tobacco” value with transformed tobacco is “stimulated”.
In the case of `O=C(O)Cc1c[nH]c2cc(Br)ccc12` [6-BrIAA, 6-bromoindole-3-acetic acid], the “growth response of tobacco leaf discs” value in the test with tobacco leaf discs [2] (different concentrations, absence of BAP) is “both the formation of roots and the formation of calli were observed”; in the test with tobacco leaf discs [3] (different concentrations, presence of BAP) it was “the formation of both shoots and calli occurred”. In addition, the “growth response of tomato leaf discs” value is “calli, not roots, were formed” with tomato leaf discs [6] and “only root formation was observed” in the test on tomato leaf discs [7]. Moreover, the entries for the “root formation in potato stems” value in the test on potato stems [4] and in the test on potato stems [4] (concentration increased from 0.5 to 2.0 mg/l) were “root formation was diminished” and “root formation increased”, respectively. Further, the “growth response of potato stems” value in the test on potato stems [5] (0.5, 2.0, 8.0 mg/l with BAP 0.5 mg/l) is “callus formation was observed at all ratios of cytokinin/auxin”.
`O=C(O)Cc1c[nH]c2c(Br)cccc12` [7-BrIAA, 7-bromoindole-3-acetic acid]: in the test on transformed potato, the “Potato Callus (regeneration of transformed tissue)” value was “+(−)” and the “regeneration … in transformed potato” value is given as “stimulated”. In the test with transformed tobacco, the “regeneration … in transformed tobacco” value is listed as “stimulated”.
On to `CCc1cccc2c(CC(=O)O)c[nH]c12` [7-EtIAA, 7-ethylindole-3-acetic acid], for which, in the test on transformed potato, the “Potato Callus (regeneration of transformed tissue)” value was “+(−)” and the “regeneration … in transformed potato” value is reported as “stimulated”. In addition, the “regeneration … in transformed tobacco” value in the test on transformed tobacco is recorded as “stimulated”.
`O=C(O)Cc1c[nH]c2c(F)cccc12` [7-FIAA, 7-fluoroindole-3-acetic acid]: in the test on transformed potato, the “Potato Callus (regeneration of transformed tissue)” value is “+(−)” and the “regeneration … in transformed potato” value was “stimulated”. The “regeneration … in transformed tobacco” value with transformed tobacco is “stimulated”.
